Experiments:
[1] = tested on: HEK293 cells treated with HOPAN; assay: Rescue of HEK293 cells in HOPAN induced PKAN model; type: cell-based, human; details: 100 μM, HOPAN 0.5 mM, 4 days, HEK293, vitamin B5 deficient DMEM
Procedure: Similar to Drosophila-S2 cells, the PKAN disease model can also be induced using HOPAN in mammalian cell lines. Rescue efficiency of (S)-acetyl-4′-phosphopantetheine and 4′-phosphopantetheine was studied in HOPAN induced PKAN model system, namely in mammalian HEK293 cells.
Materials and Methods: HEK293 cells were cultured in vitamin B5 deficient DMEM (Thermo Scientific) supplemented with 10% dialysed FCS (Thermo Scientific) with and without HOPAN (0.5 mM) and (S)-acetyl-4′-phosphopantetheine and 4′-phosphopantetheine for 4 days. 100 μM of (S)-acetyl-4′-phosphopantetheine and 4′-phosphopantetheine was compared for its rescue efficiency.

Human HEK293 cells = assay: Cellular toxicity (drop in cell counts) in HEK293 cells; type: cell-based; details: increasing concentrations
[2] = tested on: dPANK/fbl down-regulated Drosophila-S2 cells; assay: Rescue of cell survival in dPANK/fbl RNAi Drosophila S2 cells (PKAN cell model); type: cell-based; details: 100 μM; for rescue of cell count defect (cell survival): triplicate
Source text: The down-regulation of […] ortholog in Drosophila) using RNAi approach in Drosophila S2 cells is an established in-vitro PKAN disease model (Rana, A. et al., PNAS, 2010, 107, 6988; Siudja et al., EMBO Mol med. 2011, 3, 755; Siudeja et al., PLoS One 2012, 7, e443145). Down-regulation of dPANK/fbl by RNAi, causes a decrease in the survival of cells. […] Materials and Methods: […]

protein acetylation = assay: Rescue of protein acetylation defect in PKAN models; type: cell-based
Source text: For a variety of diseases HDAC inhibitors are being used and specifically the valproic acid is currently used in diseases ranging from cancer, to epilepsy, to neurodegeneration. The disadvantage is that valproic acid has severe side effects.

[3] = tested on: Drosophila-S2 cells treated with HOPAN; assay: Rescue in HOPAN assay, Drosophila S2 cells; type: cell-based; details: 100 μM, HOPAN 0.5 mM, two days
Procedure: In an additional experiment, Drosophila-S2 cells treated with the chemical inhibitor HOPAN (hopanthenate, CAS 17097-76-6, IUPAC: calcium 4-[[(2R)-2,4-dihydroxy-3,3-dimethylbutanoyl]amino]butanoate). Cells treated with HOPAN also serve as a model for PKAN. Cells treated with HOPAN also show a reduction in cell viability.
Materials and Methods: Drosophila Schneider's S2 cells were cultured and subjected to HOPAN (0.5 mM) treatment with and without (S)-acetyl-4′-phosphopantetheine and 4′-phosphopantetheine for two days (Siudeja. K. et al., EMBO Mol Med. 2011, 3, 755). 100 μM of (S)-acetyl-4′-phosphopantetheine and 4′-phosphopantetheine was compared for its rescue efficiency.

Row | Compound | reduction of HOPAN induced cell count defect [1] | toxicity (drop in cell counts) (Human HEK293 cells) | rescue of cell count defect (cell survival) [2] | rescue of protein acetylation defect (protein acetylation) | rescue potential compared to the other compounds [2] | rescue of HOPAN induced cell count defect [3]
1 | CC(C)(COP(=O)(O)O)[C@@H](O)C(=O)NCCC(=O)NCCS [4′-phosphopantetheine] | significantly reduced the HOPAN induced cell count defect | less toxic compared to pantethine | rescued the cell count defect significantly |  |  | 
2 | CC(/C=C/C(=O)NO)=C\[C@@H](C)C(=O)c1ccc(N(C)C)cc1 [Trichostatin A] |  |  |  | rescue the protein acetylation defect |  | 
3 | CCCC(CCC)C(=O)O [valproic acid] |  |  |  | rescue the protein acetylation defect |  | 
4 | (S)-acetyl-4′-phosphopantetheine | significantly reduced the HOPAN induced cell count defect | less toxic compared to pantethine | rescued the cell count defect significantly |  | superior rescue potential as compared to pantethine and 4′-phosphopantetheine | significantly rescued
